{"source": "patent US20120301895A1", "about": "“METHODS OF MODULATING BINDING OF SON OF SEVENLESS TO PHOSPHATIDIC ACID AND IDENTIFYING COMPOUNDS THAT MODULATE SUCH BINDING” (THE RESEARCH FOUNDATION OF STATE UNIVERSITY OF NEW YORK, priority 2007, published 2012)", "key": {"Ras": {"system": "Ras", "assay": "Ras activation pull-down assay (Raf1 Ras binding domain) in MDA-MB-231 cells", "type": "cell-based, human", "settings": "0.5% serum", "experimental": "In FIG. 14A, MDA-MB-231 cells were plated and then placed in media containing 0.5% media 24 hr later. 24 hr later, the cells were treated with either DMSO or honokiol (20 μM) as indicated for 2 hr. At this point the cells were harvested and lysates were prepared and treated with the immobilized Ras binding domain of Raf1 as in FIGS. 12A-C. Ras-GTP bound to the Raf1 binding domain was recovered and subjected to Western blot analysis using the Pan-Ras antibody. Total Ras in the cell lysates and actin levels were also examined by Western blot analysis. In FIG. 14B, MDA-MB-231 cells were plated and 24 hr later were shifted to media containing 0.5% serum. The cells were then treated with EGF (200 ng/ml) for 10 min. The cells were also treated with honokiol (20 μM) prior to the addition of EGF for the times indicated. The levels of GTP-bound Ras, total Ras, and actin were then determined as in FIG. 14A. […] Cells were then collected and Ras activation was determined using the pull-down assay as above. Levels of Ras-GTP, Sos, and Ras were determined by Western blot analysis using an antibody that recognized HA. […] Cells were then stimulated with 100 ng/ml EGF for the indicated times (min) and Ras activation was determined as in FIG. 14A. […] Cells were then stimulated with 100 ng/ml EGF for the indicated times (min) and Ras activation was determined as in FIG. 14A. […]"}, "[1]": {"system": "MDA-MB-231 human breast cancer cells", "settings": "Wolf et al. 2007; cited from earlier work"}, "tumor growth": {"system": "tumor growth", "settings": "Bai et al. 2003; cited from earlier work"}, "[2]": {"system": "human prostate cancer cells", "settings": "Shigemura et al. 2007; cited from earlier work"}, "[3]": {"system": "PLD activity in 786-O cells", "assay": "PLD activity in 786-O cells", "type": "cell-based, human", "settings": "no activated Ras", "excerpt": "The PLD activity elevated in response to stress in the MDA-MB-231 cells was dependent on Ras in the MDA-MB-231, and also in the Calu1, and T24 cancer cells (Shi et al., “Elevated Phospholipase D Activity in Human Cancer Cells with Activating Ras Mutations Provides Survival Signal,” Cancer Lett. 258:268-75 (2007), which is hereby incorporated by reference in its entirety). […] This is interesting in that there is an activated K-Ras gene in the MDA-MB-231 cells. Similarly, there are activating mutations to Ras genes in both the Calu1 and T24 cells. It was recently reported that the PLD activity in the T24 cells, where H-Ras is activated, is dependent on the expression of H-Ras; and the PLD activity in the Calu-1 cells, where K-Ras is activated, is dependent on the expression of K-Ras (Shi et al., “Elevated Phospholipase D Activity in Human Cancer Cells with Activating Ras Mutations Provides Survival Signal,” Cancer Lett. 258:268-75 (2007), which is hereby incorporated by reference in its entirety). […] However, it is also possible that the increased GTP bound Ras represents activation of the non-mutated Ras—either the Ras protein encoded by the non-mutated wild type allele or other Ras isoforms. In the case of the MDA-MD-231 that would mean that H-Ras was being activated or the wild type K-Ras encoded by the non-mutant allele. […]"}}}
{"smiles": "C=CCc1ccc(O)c(-c2ccc(O)c(CC=C)c2)c1", "note": "[honokiol, Honokiol]", "values": [{"measurement": "Ras activation induced by EGF", "setting": "Ras; honokiol 20 μM before EGF 200 ng/ml 10 min", "result": "suppressed"}, {"measurement": "level of GTP-bound Ras", "setting": "Ras; honokiol 20 μM, 2 hr, effect small, but reproducible", "result": "suppressed"}, {"measurement": "growth of MDA-MB-231 cells in mouse xenograft", "setting": "[1]", "result": "suppress the growth"}, {"measurement": "tumor growth in mouse xenografts", "setting": "tumor growth", "result": "blocked tumor growth"}, {"measurement": "bone metastatic growth of human prostate cancer cells", "setting": "[2]", "result": "inhibit the bone metastatic growth"}, {"measurement": "PLD activity", "setting": "[3]", "result": "blocks"}]}
